Values of other authors as cited in patent US10953021B2, “Topical compositions of flunisolide and methods of treatment” (Lupin Limited, priority 2013, dated 2021).

Tests used:
[1] = animal anti-inflammatory assays, versus cortisol
[2] = McKenzie skin blanching test, versus dexamethasone

## CC1(C)O[C@@H]2C[C@H]3[C@@H]4C[C@H](F)C5=CC(=O)C=C[C@]5(C)[C@H]4[C@@H](O)C[C@]3(C)[C@]2(C(=O)CO)O1 [Flunisolide, 6α-fluoro-11β, 21-dihydroxy-16α,17α-(isopropylidenedioxy)pregna-1,4-diene-3,20-dione]
[1]
  anti-inflammatory potency relative to cortisol: several hundred times more potent than cortisol
[2]
  anti-inflammatory effects relative to dexamethasone: several hundred times more potent than dexamethasone
